Counter-ions that a name gives are not always drawn.
The compounds below were run against T1, HCV polymerase (Hepatitis C virus genotype 1b, UniProt P26663) (assay: biochemical). Conditions: not given.
T1 construct: a region encoding NS5B (J Virol 1991 March, 65(3), 1105-13, 544 amino acids after deletion of 47 amino acids on the C-terminal); 6xHis (C); made in house; host or cells: Escherichia coli
T1 sequence (P26663 2420-2963): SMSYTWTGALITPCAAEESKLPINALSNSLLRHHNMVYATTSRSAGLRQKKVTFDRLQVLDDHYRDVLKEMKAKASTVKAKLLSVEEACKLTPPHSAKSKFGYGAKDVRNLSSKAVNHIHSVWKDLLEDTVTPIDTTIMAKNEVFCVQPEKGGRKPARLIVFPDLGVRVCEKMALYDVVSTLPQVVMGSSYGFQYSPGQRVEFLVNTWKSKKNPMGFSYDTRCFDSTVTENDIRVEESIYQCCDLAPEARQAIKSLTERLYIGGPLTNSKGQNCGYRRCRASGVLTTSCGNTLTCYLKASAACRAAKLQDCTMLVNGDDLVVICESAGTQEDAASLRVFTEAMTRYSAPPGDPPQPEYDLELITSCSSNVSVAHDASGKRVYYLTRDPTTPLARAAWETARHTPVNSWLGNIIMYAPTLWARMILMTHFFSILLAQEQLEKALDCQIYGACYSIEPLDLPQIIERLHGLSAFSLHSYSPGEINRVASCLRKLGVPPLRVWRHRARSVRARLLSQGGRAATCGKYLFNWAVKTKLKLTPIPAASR
Set-up: species or system HCV BK strain
Method in brief: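 His-tagged NS5B (BK strain, 47-aa C-terminal deletion, E. coli-expressed) at 0.5 μg/ml copied 5 μg/ml run-off RNA bearing the HCV 3′ UTR with 2 μM UTP plus [3H]UTP, 50 μM ATP/GTP, in pH 7.5 Tris with 5 mM MgCl2, 25 °C, 90 min. TCA-precipitated RNA was counted and IC50 calculated.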
Compound CCN(CC)CCCCN1CCn2c(c(C3CCCCC3)c3ccc(C(=O)O)cc32)-c2ccc(C)cc21 [Example 1-493, 13-cyclohexyl-5-(4-diethylaminobutyl)-3-methyl-6,7-dihydro-5H-benzo[5,6][1,4]diazepino[7,1-a]indole-10-carboxylic-acid dihydrochloride] has an IC50 of under 100 nM.
Compound Cc1ccc2c(c1)N(CCN1CCC[C@@H](CCO)C1)CCn1c-2c(C2CCCCC2)c2ccc(C(=O)O)cc21 [Example 1-494, 13-cyclohexyl-5-{2-[(S)-3-(2-hydroxyethyl)piperidin-1-yl)ethyl}-3-methyl-6,7-dihydro-5H-benzo[5,6][1,4]diazepino[7,1-a]indole-10-carboxylic acid dihydrochloride] has an IC50 of under 100 nM.
O=C(O)c1ccc2c(c1)N(CCN1CCCCC1)CCn1c-2c(C2CCCCC2)c2ccc(C(=O)O)cc21 [Example 1-495, 13-cyclohexyl-5-[2-(piperidin-1-yl)ethyl]-6,7-dihydro-5H-benzo[5,6][1,4]diazepino[7,1-a]indole-3,10-dicarboxylic acid monohydrochloride] was tested, and the IC50 was under 100 nM.
For CN1CCn2c(c(C3CCCCC3)c3ccc(C(=O)O)cc32)-c2ccc(OCCCN3CCCCC3)cc21 [Example 1-496, 13-cyclohexyl-5-methyl-3-[3-(piperidin-1-yl)propoxy]-6,7-dihydro-5H-benzo[5,6][1,4]diazepino[7,1-a]indole-10-carboxylic acid dihydrochloride], the IC50 was under 100 nM.
O=C(O)c1ccc2c(C3CCCCC3)c3n(c2c1)CCN(CCN1CCC[C@@H](COc2ccccc2)C1)c1ccccc1-3 [Example 1-497, 13-cyclohexyl-5-[2-((R)-3-phenoxymethylpiperidin-1-yl)ethyl]-6,7-dihydro-5H-benzo[5,6][1,4]diazepino[7,1-a]indole-10-carboxylic acid dihydrochloride] showed an IC50 of under 100 nM.
Work on CCOc1ccc2c(c1)N(CCN1CCC[C@@H](COC)C1)CCn1c-2c(C2CCCCC2)c2ccc(C(=O)O)cc21 [Example 1-499, 13-cyclohexyl-3-ethoxy-5-[2-((R)-3-methoxymethylpiperidin-1-yl)ethyl]-6,7-dihydro-5H-benzo[5,6][1,4]diazepino[7,1-a]indole-10-carboxylic acid dihydrochloride] yielded an IC50 of under 100 nM.
For CCOc1ccc2c(c1)N(CCN1CCCOCC1)CCn1c-2c(C2CCCCC2)c2ccc(C(=O)O)cc21 [Example 1-500, 13-cyclohexyl-3-ethoxy-5-[2-(1,4-oxazepan-4-yl)ethyl]-6,7-dihydro-5H-benzo[5,6][1,4]diazepino[7,1-a]indole-10-carboxylic acid dihydrochloride], the IC50 was under 100 nM.
In the case of CCOc1ccc2c(c1)N(CCN1CCC(CCOC)CC1)CCn1c-2c(C2CCCCC2)c2ccc(C(=O)O)cc21 [Example 1-501, 13-cyclohexyl-3-ethoxy-5-{2-[4-(2-methoxyethyl)piperidin-1-yl]ethyl}-6,7-dihydro-5H-benzo[5,6][1,4]diazepino[7,1-a]indole-10-carboxylic acid dihydrochloride], the IC50 is reported as under 100 nM.
For COCCC1CCN(CCN2CCn3c(c(C4CCCCC4)c4ccc(C(=O)O)cc43)-c3ccc(C)cc32)CC1 [Example 1-502, 13-cyclohexyl-5-{2-[4-(2-methoxyethyl)piperidin-1-yl]ethyl}-3-methyl-6,7-dihydro-5H-benzo[5,6][1,4]diazepino[7,1-a]indole-10-carboxylic acid dihydrochloride], the IC50 was under 100 nM.
Compound CCN(CC)CC(O)CN1CCn2c(c(C3CCCCC3)c3ccc(C(=O)O)cc32)-c2ccc(Cl)cc21 (centres unmarked) [Example 1-503, 3-chloro-13-cyclohexyl-5-(3-diethylamino-2-hydroxypropyl)-6,7-dihydro-5H-benzo[5,6][1,4]diazepino[7,1-a]indole-10-carboxylic acid dihydrochloride] has an IC50 of under 100 nM.
Compound CC(=O)N1CCCN(CCN2CCn3c(c(C4CCCCC4)c4ccc(C(=O)O)cc43)-c3ccc(C)cc32)CC1 [Example 1-504, 5-[2-(4-acetyl-1,4-diazepan-1-yl)ethyl]-13-cyclohexyl-3-methyl-6,7-dihydro-5H-benzo[5,6][1,4]diazepino[7,1-a]indole-10-carboxylic acid dihydrochloride] has an IC50 of under 100 nM.
With Cc1ccc2c(c1)NCCn1c-2c(C2CCCCC2)c2ccc(S(N)(=O)=O)cc21 [Example 1-506, 13-cyclohexyl-3-methyl-6,7-dihydro-5H-benzo[5,6][1,4]diazepino[7,1-a]indole-10-sulfonamide] the IC50 was 100 to 1000 nM.
Cc1ccc2c(c1)N(CCN1CCCCC1)CCn1c-2c(C2CCCCC2)c2ccc(S(N)(=O)=O)cc21 [Example 1-507, 13-cyclohexyl-3-methyl-5-[2-(piperidin-1-yl)ethyl]-6,7-dihydro-5H-benzo[5,6][1,4]diazepino[7,1-a]indole-10-sulfonamide dihydrochloride] gave an IC50 of 100 to 1000 nM.
COC[C@@H]1CCCN(CCN2CCn3c(c(C4CCCCC4)c4ccc(C(=O)O)cc43)-c3ccc(OC)cc32)C1 [Example 1-508, 13-cyclohexyl-3-methoxy-5-[2-((R)-3-methoxymethylpiperidin-1-yl)ethyl]-6,7-dihydro-5H-benzo[5,6][1,4]diazepino[7,1-a]indole-10-carboxylic acid dihydrochloride] was tested, and the IC50 was under 100 nM.
Compound COC[C@@H]1CCCN(CCN2CCn3c(c(C4CCCCC4)c4ccc(C(=O)O)cc43)-c3ccc(F)cc32)C1 [Example 1-509, 13-cyclohexyl-3-fluoro-5-[2-((R)-3-methoxymethylpiperidin-1-yl)ethyl]-6,7-dihydro-5H-benzo[5,6][1,4]diazepino[7,1-a]indole-10-carboxylic acid dihydrochloride] has an IC50 of under 100 nM.
In the case of COc1ccc2c(c1)N(CCN1CCCOCC1)CCn1c-2c(C2CCCCC2)c2ccc(C(=O)O)cc21 [Example 1-510, 13-cyclohexyl-3-methoxy-5-[2-(1,4-oxazepan-4-yl)ethyl]-6,7-dihydro-5H-benzo[5,6][1,4]diazepino[7,1-a]indole-10-carboxylic acid dihydrochloride], the IC50 is reported as under 100 nM.
CCN(CCCN1CCn2c(c(C3CCCCC3)c3ccc(C(=O)O)cc32)-c2ccc(C)cc21)CCOC [Example 1-511, 13-cyclohexyl-5-{3-[N-ethyl-N-(2-methoxyethyl)amino]propyl}-3-methyl-6,7-dihydro-5H-benzo[5,6][1,4]diazepino[7,1-a]indole-10-carboxylic acid dihydrochloride] showed an IC50 of under 100 nM.
Work on CCN(CCO)CCCN1CCn2c(c(C3CCCCC3)c3ccc(C(=O)O)cc32)-c2ccc(C)cc21 [Example 1-512, 13-cyclohexyl-5-{3-[N-ethyl-N-(2-hydroxyethyl)amino]propyl}-3-methyl-6,7-dihydro-5H-benzo[5,6][1,4]diazepino[7,1-a]indole-10-carboxylic acid dihydrochloride] yielded an IC50 of under 100 nM.
CCc1ccc2c(c1)N(CCCN(CC)CCCOC)CCn1c-2c(C2CCCCC2)c2ccc(C(=O)O)cc21 [Example 1-513, 13-cyclohexyl-5-{3-[N-ethyl-N-(3-methoxypropyl)amino]propyl}-3-ethyl-6,7-dihydro-5H-benzo[5,6][1,4]diazepino[7,1-a]indole-10-carboxylic acid dihydrochloride] gave an IC50 of under 100 nM.
Compound CCOCC[C@@H]1CCCN(CCN2CCn3c(c(C4CCCCC4)c4ccc(C(=O)O)cc43)-c3ccc(C)cc32)C1 [Example 1-514, 13-cyclohexyl-5-{2-[(S)-3-(2-ethoxyethyl)piperidin-1-yl]ethyl}-3-methyl-6,7-dihydro-5H-benzo[5,6][1,4]diazepino[7,1-a]indole-10-carboxylic acid dihydrochloride] has an IC50 of under 100 nM.
Compound CCOCC[C@@H]1CCCN(CCN2CCn3c(c(C4CCCCC4)c4ccc(C(=O)O)cc43)-c3ccc(OCC)cc32)C1 [Example 1-515, 13-cyclohexyl-3-ethoxy-5-{2-[(S)-3-(2-ethoxyethyl)piperidin-1-yl]ethyl}-6,7-dihydro-5H-benzo[5,6][1,4]diazepino[7,1-a]indole-10-carboxylic acid dihydrochloride] has an IC50 of under 100 nM.
Cc1ccc2c(c1)N(C)CCn1c-2c(C2CCCCC2)c2ccc(S(N)(=O)=O)cc21 [Example 1-517, 13-cyclohexyl-3,5-dimethyl-6,7-dihydro-5H-benzo[5,6][1,4]diazepino[7,1-a]indole-10-sulfonamide] was tested, and the IC50 was 100 to 1000 nM.
Compound COC(=O)N1CCCN(CCN2CCn3c(c(C4CCCCC4)c4ccc(C(=O)O)cc43)-c3ccc(C)cc32)CC1 [Example 1-518, 13-cyclohexyl-5-[2-(4-methoxycarbonyl-1,4-diazepan-1-yl)ethyl]-3-methyl-6,7-dihydro-5H-benzo[5,6][1,4]diazepino[7,1-a]indole-10-carboxylic acid dihydrochloride] has an IC50 of under 100 nM.
O=C1CCN(CCN2CCn3c(c(C4CCCCC4)c4ccc(C(=O)O)cc43)-c3ccccc32)CCN1 [Example 1-519, 13-cyclohexyl-5-[2-(5-oxo-1,4-diazepan-1-yl)ethyl]-6,7-dihydro-5H-benzo[5,6][1,4]diazepino[7,1-a]indole-10-carboxylic acid dihydrochloride] showed an IC50 of under 100 nM.
CC(=O)NS(=O)(=O)c1ccc2c(C3CCCCC3)c3n(c2c1)CCN(CCN1CCCCC1)c1cc(C)ccc1-3 [Example 1-520, N-acetyl-13-cyclohexyl-3-methyl-5-[2-(piperidin-1-yl)ethyl]-6,7-dihydro-5H-benzo[5,6][1,4]diazepino[7,1-a]indole-10-sulfonamide dihydrochloride] was tested, and the IC50 was under 100 nM.

Same assay, conditions: 25° C., 90 min; [5,6-3H]UTP incorporation into RNA; read-out: HCV polymerase inhibitory activity IC50
CCOc1ccc2c(c1)N(CCN1CCCCCCC1)CCn1c-2c(C2CCCCC2)c2ccc(C(=O)O)cc21 [Example 1-498, 5-[2-(azocan-1-yl)ethyl]-13-cyclohexyl-3-ethoxy-6,7-dihydro-5H-benzo[5,6][1,4]diazepino[7,1-a]indole-10-carboxylic acid monohydrochloride] gave an IC50 of under 100 nM.
